Each structure is given as a SMILES string. Several values for one entry are separate records, joined by “and”; a condition that tells them apart may be missing. Equal values may be shown once. Entries after “also recorded” stand apart in the source; their conditions may differ. Read-outs that look alike come from different tables or passages of the source.

One may read the IC50 as the midpoint of a concentration-inhibition curve. As usually defined, the Ki is the equilibrium dissociation constant of an inhibitor or competing ligand from its target. Broadly, the Kd is a measure of binding affinity in units of concentration. As usually defined, the inhibition is how much of the control response was suppressed.

Experiment [1] has as its target T1, σ1 receptors (Mus musculus, UniProt O55242). In words: In vitro σ1 receptor binding, [^3H]. Conditions: for Selectivity Ki Ratio σ2/σ1: CD-1 mouse whole brain membranes. The arrangement: species or system CD-1 mouse.
The target of experiment [2] is T2, σ2 receptors (Mus musculus, UniProt Q8VD00).
T2 sequence (Q8VD00 1-176): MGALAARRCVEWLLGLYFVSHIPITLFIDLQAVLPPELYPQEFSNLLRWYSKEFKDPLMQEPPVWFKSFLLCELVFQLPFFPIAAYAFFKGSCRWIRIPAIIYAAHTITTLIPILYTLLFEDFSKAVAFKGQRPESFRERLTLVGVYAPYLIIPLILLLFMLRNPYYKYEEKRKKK
The experiment in a line: In vitro σ2 receptor binding, [^3H]DTG/. The arrangement: species or system CD-1 mouse.

Experiment [3] concerns the target T1, σ1 receptors. The experiment is classed as in vivo, CD-1 mice. The conditions noted are these: for Occupancy of cerebral σ1 receptors: in the absence of (−)-cocaine.
Experiment [4] has as its target striatal dopamine transporters (DAT) (Mus musculus, UniProt Q61327). The experiment in a line: In vivo DAT occupancy: inhibition of [^125I]RTI-121 specific binding in striatum. The arrangement: species or system CD-1 mice.
For experiment [5], the system named is CD-1 mice. The experiment in a line: Locomotor activity: basal and. The experiment is classed as in vivo. Conditions: i.p.; E-IA-DM-PE-PIPZE up to 3.16 μmol/kg, BD1063 3.16 and 31.6 μmol/kg; 60 min.
Experiment [6] addresses DAT. The conditions noted are these: read-out: Ki for the DAT in vitro; ref Lever et al., 2012; cited from earlier work.
Experiment [7] addresses T1, σ1 receptors. The conditions noted are these: read-out: Kd for σ1 sites in mouse brain membranes; ref Lever et al., 2012; cited from earlier work.
In experiment [8] the target is T1, σ1 receptors. The conditions noted are these: ref Lever et al., 2014a; cited from earlier work.
Experiment [9] concerns the target σ1 receptors. The conditions noted are these: read-out: σ1 Ki; ref Lever et al., 2014a; cited from earlier work.
Where [10] appears, read: 3.0 nM [^3H](+)pentazocine, 37 °C, 180 min.
The mark [11] stands for this setting: 3.0 nM [^3H]DTG/500 nM (+)pentazocine, 25 °C, 60 min.
Setting [12] is: ligand i.p. 1 min prior to radioligand, 30 min, unconstrained fit.
Where [13] appears, read: read-out: Sigma1 IC50, 3.0 nM [^3H](+)pentazocine, 37 °C, 180 min.
Setting [14] is: read-out: Sigma2 IC50, 3.0 nM [^3H]DTG/500 nM (+)pentazocine, 25 °C, 60 min.
Setting [15] is: homologous saturation, 25 °C, 60 min, two-site model.

striatal dopamine transporters (DAT), sequence (Q61327 whole entry): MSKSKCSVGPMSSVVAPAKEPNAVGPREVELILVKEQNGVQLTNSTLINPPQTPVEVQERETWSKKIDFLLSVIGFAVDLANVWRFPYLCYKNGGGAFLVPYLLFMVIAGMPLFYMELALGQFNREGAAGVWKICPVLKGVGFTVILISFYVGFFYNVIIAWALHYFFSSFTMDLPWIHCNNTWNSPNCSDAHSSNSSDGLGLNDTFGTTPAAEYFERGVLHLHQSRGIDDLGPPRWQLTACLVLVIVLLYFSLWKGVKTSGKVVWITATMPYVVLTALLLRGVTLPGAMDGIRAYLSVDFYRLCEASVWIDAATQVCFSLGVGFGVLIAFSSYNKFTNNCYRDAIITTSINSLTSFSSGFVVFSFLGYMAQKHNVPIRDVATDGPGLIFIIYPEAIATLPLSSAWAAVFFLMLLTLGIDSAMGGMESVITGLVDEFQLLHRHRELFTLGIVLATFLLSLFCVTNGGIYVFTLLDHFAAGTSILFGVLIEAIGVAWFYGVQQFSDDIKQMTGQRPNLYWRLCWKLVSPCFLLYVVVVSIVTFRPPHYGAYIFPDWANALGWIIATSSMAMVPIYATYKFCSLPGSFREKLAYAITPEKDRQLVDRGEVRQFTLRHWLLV
T1 sequence (O55242 whole entry): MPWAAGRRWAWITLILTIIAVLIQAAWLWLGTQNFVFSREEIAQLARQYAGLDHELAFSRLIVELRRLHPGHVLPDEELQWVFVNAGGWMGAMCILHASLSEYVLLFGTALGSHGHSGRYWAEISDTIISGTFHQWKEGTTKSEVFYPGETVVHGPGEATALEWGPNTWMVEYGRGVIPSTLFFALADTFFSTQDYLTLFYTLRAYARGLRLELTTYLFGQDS

As to `CC(C(O)c1ccc(O)cc1)N1CCC(Cc2ccccc2)CC1` (stereo not drawn) [Ifenprodil, ifenprodil (+)-tartrate], in experiment [1], the IC50 is 35 ± 0.95 nM, affinity was put at a Ki of 22.7 ± 0.61 nM and the “Selectivity Ki Ratio σ2/σ1” value stood at 0.1. Moreover, the “Sigma1 nH” value in experiment [1] (setting [10]) was determined as 1.08 ± 0.06. Further, in experiment [2], the IC50 came to 2.69 ± 0.36 nM and the Ki stood at 2.43 ± 0.32 nM. Besides, the “Sigma2 nH” value in experiment [2] (setting [11]) worked out at 0.70 ± 0.07.
With `COc1ccc(CCN2CCN(C/C=C/I)CC2)cc1OC` [E-IA-DM-PE-PIPZE, E-N-1-(3′-iodoallyl)-N′-4-(3″,4″-dimethoxyphenethyl)-piperazine], the “Occupancy of cerebral σ1 receptors” value in [3] (0.316 μmol/kg i.p.) was 58%; in [3] (3.16 μmol/kg i.p.), 86%. Further, the “ED50 for σ1 occupancy, brain” value in experiment [3] (setting [12]) came out at 0.23 µmol/kg. In experiment [3] (setting [12]), the “ED50 for σ1 occupancy, heart” value turned out to be 0.03 µmol/kg. Further, the “ED50 for σ1 occupancy, lung” value in [3] (setting [12]) is 0.08 µmol/kg. The “ED50 for σ1 occupancy, spleen” value in experiment [3] (setting [12]) amounted to 0.35 µmol/kg. Moreover, the “Inhibition of striatal [^125I]RTI-121 specific binding” value in [4] (10.0 μmol/kg i.p.) is listed as “did not affect radioligand binding; also recorded: No inhibition”. Also, the “Effect on basal locomotor activity” value in experiment [5] was “do not significantly; also recorded: not affected”. The “Sigma1 nH” value in [1] (setting [10]) is on record as 0.98 ± 0.07. The “Selectivity Ki Ratio σ2/σ1” value in experiment [1] turned out to be 215. Besides, the IC50 turned out to be 10.4 ± 1.39 nM in experiment [1] (setting [13]) and 1600 ± 243 nM in experiment [2] (setting [14]). Moreover, the Ki was 6.73 ± 0.9 nM in experiment [1] (read-out: Sigma1 Ki) and greater than 10000 nM in experiment [6]. The “Sigma2 nH” value in experiment [2] (setting [11]) is 0.98 ± 0.08.
For `Cc1ccccc1NC(=N)Nc1ccccc1C` [[^3H]DTG], in experiment [2] (setting [15]), the “Bmax, high affinity, low capacity site (σ2 receptor)” value amounted to 711 ± 81 fmol/mg protein and the “Bmax, low affinity, high capacity site” value amounted to 21307 ± 7059 fmol/mg protein.
For `CC(C)=CCN1CC[C@]2(C)c3cc(O)ccc3C[C@H]1[C@H]2C` [(+)-Pentazocine, (+)-pentazocine], in experiment [1] (setting [10]), the “Sigma1 nH” value came to 1.09 ± 0.03.
For `Cc1ccccc1NC(=N)Nc1ccccc1C` [DTG, 1,3-di(2-tolyl)guanidine], in [1], the IC50 is 173 ± 19.9 nM and the affinity corresponds to a Ki of 112 ± 12.9 nM. For the same molecule, in [1] (setting [10]), the “Sigma1 nH” value is on record as 0.91 ± 0.14. In experiment [2] (setting [11]), the “Sigma2 nH” value is reported as 0.88 ± 0.05.
As to `C=CCN1CCC2(C)c3cc(O)ccc3CC1C2C` (single isomer, unassigned; (+)) [(+)-NANM, (+)-N-allylnormetazocine], the “Sigma1 nH” value in experiment [1] (setting [10]) stood at 1.06 ± 0.11. Moreover, the “Selectivity Ki Ratio σ2/σ1” value in experiment [1] is given as 608. Moreover, the results for the IC50 in experiment [1] (setting [13]) and in experiment [2] (setting [14]) were 20.6 ± 1.14 nM and 8990 ± 850 nM, respectively. Also, the Ki in [1] (read-out: Sigma1 Ki) is 13.3 ± 0.74 nM. Further, the “Sigma2 nH” value in [2] (setting [11]) amounted to 0.98 ± 0.12.
`CC(C)=CCN1CC[C@]2(C)c3cc(O)ccc3C[C@H]1[C@H]2C` [[^3H](+)-Pentazocine]: in experiment [1] (saturation binding, 37 °C, 180 min), the “Maximal site density (Bmax), σ1 receptors” value was 538 ± 30 fmol/mg protein and 538 fmol/mg protein.
For the molecule `COc1ccc(CCN2CCN(C/C=C/I)CC2)cc1OC` [[^125I]E-IA-DM-PE-PIPZE, [^125I]E-N-1-(3′-iodoallyl)-N′-4-(3″,4″-dimethoxyphenethyl)-piperazine], the Kd in experiment [7] is 3.79 nM.
For the molecule `C=CCN1CCC2(C)c3cc(O)ccc3CC1C2C` (single isomer, unassigned; (-)) [(−)-NANM, (−)-N-allylnormetazocine], the “Sigma1 nH” value in experiment [1] (setting [10]) is given as 1.09 ± 0.08. Moreover, in experiment [1], the “Selectivity Ki Ratio σ2/σ1” value is reported as 2.6. For the same molecule, the IC50 in [1] (setting [13]) is 3980 ± 600 nM; in experiment [2] (setting [14]), 7460 ± 469 nM. In addition, the Ki in experiment [1] (read-out: Sigma1 Ki) worked out at 2550 ± 383 nM. For the same molecule, the “Sigma2 nH” value in experiment [2] (setting [11]) stood at 0.93 ± 0.08.
Take `Fc1ccc(C(OCCN2CCN(CCCc3ccccc3)CC2)c2ccc(F)cc2)cc1` [GBR12909, 1-{2-[bis-(4-fluorophenyl)methoxy]ethyl}-4-(3-phenylpropyl)piperazine]: in experiment [4] (mouse, iv, read-out: Inhibition of specific [^125I]RTI-121 binding), the inhibition at 10 µmol/kg was 75%.
For the molecule `CCCN1CCC=C(c2cc(-c3ccc(C)cc3)no2)C1` [PD144418], the “σ1 receptor occupancy threshold for significant behavioral effects” value in [8] is reported as 80%. Also, in experiment [9], the Ki was 0.19 nM.

Values taken from publication PMC4724290 (Synapse (New York, N.Y.), 2015).
